Experimental data from PubChem BioAssay AID248 (DTP/NCI, 2004).
“And” between values parts separate entries of the source, which are not always exact repeats. Equal entries are not always repeated. Inconclusive results and toxic doses are left out. Cut-off read from the data, not from the text of the source: active = T/C of 150% or more; inactive = T/C below 125%.

Test system: L1210 leukemia ip in BDF1 mice, survival T/C
Assay: NCI In Vivo Anticancer Drug Screen. Data for tumor model L1210 Leukemia (intraperitoneal) in B6D2F1 (BDF1) mice
Details: endpoint: mean survival time, higher = longer survival
Method in brief: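 Antitumor effect is assessed in tumor-bearing animals. Survival in the compound arm is compared with a vehicle-dosed control arm and expressed as their quotient.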

[1] = dose: 25.0 mg/kg/injection, schedule: Q04DX003 (ip), vehicle: saline
[2] = dose: 50.0 mg/kg/injection, schedule: Q04DX003 (ip), vehicle: saline
[3] = dose: 100.0 mg/kg/injection, schedule: Q01DX009 (ip), vehicle: saline
[4] = dose: 100.0 mg/kg/injection, schedule: Q04DX002 (ip), vehicle: saline
[5] = dose: 100.0 mg/kg/injection, schedule: Q04DX003 (ip), vehicle: saline
[6] = dose: 200.0 mg/kg/injection, schedule: Q04DX002 (ip), vehicle: saline
[7] = dose: 100.0 mg/kg/injection, schedule: Q04DX002 (ip), vehicle: Klucel (hydroxypropylcellulose) (HPC)
[8] = dose: 200.0 mg/kg/injection, schedule: Q04DX002 (ip), vehicle: Klucel (hydroxypropylcellulose) (HPC)
[9] = dose: 400.0 mg/kg/injection, schedule: Q04DX002 (ip), vehicle: Klucel (hydroxypropylcellulose) (HPC)
[10] = dose: 50.0 mg/kg/injection, schedule: Q01DX001 (ip), vehicle: saline
[11] = dose: 100.0 mg/kg/injection, schedule: Q04DX003 (ip), vehicle: other
[12] = dose: 200.0 mg/kg/injection, schedule: Q04DX003 (ip), vehicle: other
[13] = dose: 400.0 mg/kg/injection, schedule: Q04DX003 (ip), vehicle: other
[14] = dose: 100.0 mg/kg/injection, schedule: Q01DX001 (ip), vehicle: Klucel (hydroxypropylcellulose) (HPC)
[15] = dose: 100.0 mg/kg/injection, schedule: Q01DX009 (ip), vehicle: Klucel (hydroxypropylcellulose) (HPC)
[16] = dose: 200.0 mg/kg/injection, schedule: Q01DX001 (ip), vehicle: Klucel (hydroxypropylcellulose) (HPC)
[17] = dose: 200.0 mg/kg/injection, schedule: Q01DX009 (ip), vehicle: Klucel (hydroxypropylcellulose) (HPC)
[18] = dose: 100.0 mg/kg/injection, schedule: Q01DX001 (ip), vehicle: other
[19] = dose: 200.0 mg/kg/injection, schedule: Q01DX001 (ip), vehicle: other
[20] = dose: 400.0 mg/kg/injection, schedule: Q01DX001 (ip), vehicle: other
[21] = dose: 100.0 mg/kg/injection, schedule: Q04DX003 (ip), vehicle: Klucel (hydroxypropylcellulose) (HPC)
[22] = dose: 200.0 mg/kg/injection, schedule: Q04DX003 (ip), vehicle: Klucel (hydroxypropylcellulose) (HPC)
[23] = dose: 12.5 mg/kg/injection, schedule: Q01DX009 (ip), vehicle: saline
[24] = dose: 25.0 mg/kg/injection, schedule: Q01DX009 (ip), vehicle: saline
[25] = dose: 50.0 mg/kg/injection, schedule: Q01DX001 (ip), vehicle: carboxymethylcellulose (CMC)
[26] = dose: 100.0 mg/kg/injection, schedule: Q01DX001 (ip), vehicle: carboxymethylcellulose (CMC)
[27] = dose: 200.0 mg/kg/injection, schedule: Q01DX001 (ip), vehicle: carboxymethylcellulose (CMC)

Measured: T/C

CCN(CC)CC(=O)NCC(CCN(C)C)(c1ccc2ccccc2c1)C(C)C (configuration not stated)
inactive: [1] 99 % of control | dose: 50.0 mg/kg/injection, schedule: Q04DX002 (ip), vehicle: saline 97 % of control | [2] 94 % of control | [3] 98 % of control | [4] 106 % of control | [5] 97 % of control | [6] 86 % of control

CCOC(=O)C1=C(C)NC(C)=C(C(=O)OCC)C1
inactive: dose: 50.0 mg/kg/injection, schedule: Q01DX009 (ip), vehicle: saline 101 % of control | [3] 96 % of control | [5] 104 % of control | dose: 200.0 mg/kg/injection, schedule: Q01DX009 (ip), vehicle: saline 96 % of control | dose: 200.0 mg/kg/injection, schedule: Q04DX003 (ip), vehicle: saline 108 % of control | dose: 400.0 mg/kg/injection, schedule: Q01DX009 (ip), vehicle: saline 101 % of control | dose: 400.0 mg/kg/injection, schedule: Q04DX003 (ip), vehicle: saline 95 % of control

O=C(Nc1ccc([N+](=O)[O-])cc1[N+](=O)[O-])C(Cl)(Cl)Cl
inactive: dose: 100.0 mg/kg/injection, schedule: Q04DX003 (ip), vehicle: saline with Tween-80 94 % of control | dose: 200.0 mg/kg/injection, schedule: Q04DX003 (ip), vehicle: saline with Tween-80 96 % of control | dose: 400.0 mg/kg/injection, schedule: Q04DX003 (ip), vehicle: saline with Tween-80 105 % of control

Cc1cc(OCC(N)=O)ccc1Cl
inactive: [7] 103 % of control | [8] 92 % of control | [9] 98 % of control

CCOC(=O)N1C(c2ccccc2)N(c2ccccc2)C(c2ccccc2)N1C(=O)OCC (configuration not stated)
inactive: [10] 108 % of control | dose: 100.0 mg/kg/injection, schedule: Q01DX001 (ip), vehicle: saline 103 % of control | dose: 200.0 mg/kg/injection, schedule: Q01DX001 (ip), vehicle: saline 108 % of control | dose: 400.0 mg/kg/injection, schedule: Q01DX001 (ip), vehicle: saline 103 % of control

Cc1cccc(C)c1NC(=O)C[N+](C)(C)N
inactive: [4] 94 % of control | [6] 94 % of control

CCOC(=O)/C=C1\CCCc2cc(C)c(C)cc21
inactive: [11] 105 % of control | [12] 94 % of control | [13] 104 % of control

CN=C(c1ccc(NC(=O)c2ccc(C(=O)Nc3ccc(C(=NC)N(C)c4ccccc4)cc3)cc2)cc1)N(C)c1ccccc1
inactive: dose: 0.94 mg/kg/injection, schedule: Q01DX Z (ip), vehicle: saline 106 % of control | dose: 1.88 mg/kg/injection, schedule: Q01DX Z (ip), vehicle: saline 104 % of control | dose: 3.75 mg/kg/injection, schedule: Q01DX Z (ip), vehicle: saline 90 % of control

Cc1ccc(N=Cc2ccc3c(c2)OCO3)cc1
inactive: [14] 100 % of control | [15] 91 % of control | [16] 104 % of control | [17] 105 % of control | dose: 400.0 mg/kg/injection, schedule: Q01DX001 (ip), vehicle: Klucel (hydroxypropylcellulose) (HPC) 118 % of control | dose: 400.0 mg/kg/injection, schedule: Q01DX009 (ip), vehicle: Klucel (hydroxypropylcellulose) (HPC) 98 % of control

O=C(N/N=C/c1ccc(O)cc1O)c1ccc(O)cc1
inactive: [7] 92 % of control | [8] 103 % of control | [9] 103 % of control

O=C(O)c1cc([N+](=O)[O-])ccc1F
inactive: dose: 75.0 mg/kg/injection, schedule: Q01DX001 (ip), vehicle: acetone 95 % of control | dose: 150.0 mg/kg/injection, schedule: Q01DX001 (ip), vehicle: acetone 103 % of control

Cn1c(N)c(N=CC2CC=CCC2)c(=O)n(C)c1=O (configuration not stated)
inactive: dose: 50.0 mg/kg/injection, schedule: Q01DX001 (ip), vehicle: other 103 % of control | [18] 97 % of control | [19] 92 % of control | [20] 97 % of control

N#CC(CC(=O)O)=C(c1ccccc1)c1ccccc1
inactive: [14] 106 % of control | [15] 97 % of control and 104 % of control | [7] 96 % of control and 98 % of control | [21] 97 % of control | [16] 110 % of control | [17] 95 % of control and 101 % of control | [8] 95 % of control and 101 % of control | [22] 101 % of control

CC/C(C)=N/NCCO
inactive: dose: 12.5 mg/kg/injection, schedule: Q01DX001 (ip), vehicle: saline 114 % of control | [23] 93 % of control | dose: 25.0 mg/kg/injection, schedule: Q01DX001 (ip), vehicle: saline 101 % of control | [24] 97 % of control | [10] 103 % of control and 104 % of control

CC(CN1CCN(CCOCCO)CC1)CN1c2ccccc2Sc2ccccc21 (configuration not stated)
inactive: dose: 3.12 mg/kg/injection, schedule: Q01DX009 (ip), vehicle: saline 103 % of control | dose: 6.25 mg/kg/injection, schedule: Q01DX009 (ip), vehicle: saline 97 % of control | [23] 108 % of control | [24] 113 % of control | [1] 96 % of control | [2] 102 % of control

CC1(C)CC2C(=O)c3ccccc3NC2c2ccccc21 (configuration not stated)
inactive: [25] 96 % of control | [26] 102 % of control | dose: 100.0 mg/kg/injection, schedule: Q04DX003 (ip), vehicle: acetone 91 % of control | [27] 98 % of control | dose: 200.0 mg/kg/injection, schedule: Q04DX003 (ip), vehicle: acetone 86 % of control | dose: 400.0 mg/kg/injection, schedule: Q01DX001 (ip), vehicle: carboxymethylcellulose (CMC) 98 % of control | dose: 400.0 mg/kg/injection, schedule: Q04DX003 (ip), vehicle: acetone 93 % of control

Cc1ccccc1SCC(N)=O
inactive: [21] 91 % of control | [22] 98 % of control | dose: 400.0 mg/kg/injection, schedule: Q04DX003 (ip), vehicle: Klucel (hydroxypropylcellulose) (HPC) 107 % of control

CCCCCC(/C=N\Nc1nnc(N/N=C\C(=C\c2ccccc2)CCCCC)c2ccccc12)=C/c1ccccc1
inactive: [25] 102 % of control | dose: 88.0 mg/kg/injection, schedule: Q01DX001 (ip), vehicle: carboxymethylcellulose (CMC) 98 % of control | [26] 108 % of control | dose: 133.0 mg/kg/injection, schedule: Q01DX001 (ip), vehicle: carboxymethylcellulose (CMC) 101 % of control | [27] 104 % of control and 114 % of control | dose: 300.0 mg/kg/injection, schedule: Q01DX001 (ip), vehicle: carboxymethylcellulose (CMC) 102 % of control and 104 % of control

O=C(NCS(=O)(=O)O)OCc1ccccc1
inactive: [18] 98 % of control | [11] 96 % of control | [19] 104 % of control | [12] 102 % of control | [20] 96 % of control | [13] 96 % of control

N=C(N)/[N+]([O-])=N/O
inactive: dose: 8.0 mg/kg/injection, schedule: Q01DX001 (ip), vehicle: saline + alcohol 97 % of control | dose: 12.0 mg/kg/injection, schedule: Q01DX001 (ip), vehicle: saline + alcohol 100 % of control | dose: 18.0 mg/kg/injection, schedule: Q01DX001 (ip), vehicle: saline + alcohol 111 % of control | dose: 26.0 mg/kg/injection, schedule: Q01DX001 (ip), vehicle: saline + alcohol 98 % of control | dose: 40.0 mg/kg/injection, schedule: Q01DX001 (ip), vehicle: saline + alcohol 103 % of control | dose: 60.0 mg/kg/injection, schedule: Q01DX001 (ip), vehicle: saline + alcohol 95 % of control | dose: 90.0 mg/kg/injection, schedule: Q01DX001 (ip), vehicle: saline + alcohol 101 % of control | dose: 135.0 mg/kg/injection, schedule: Q01DX001 (ip), vehicle: saline + alcohol 100 % of control | dose: 200.0 mg/kg/injection, schedule: Q01DX001 (ip), vehicle: saline + alcohol 108 % of control
